From patent US20230115945A1, “AMINOPYRIMIDINE COMPOUNDS” (TYRA BIOSCIENCES, INC., priority 2019, published 2023)

Key:
[1] = biological target: T1, FGFR1 (Homo sapiens, UniProt P11362); experiment: Kinase binding assay (Kd), FGFR1; conditions: 11-point 3-fold dilution, qPCR readout
T1 construct: made in house; host or cells: E. coli host derived from BL21, infected with T7 phage
In short: (§1)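 Affinity-bead displacement format: kinase-tagged T7 phage, biotinylated ligand on streptavidin beads, test compound in 20% SeaBlock/0.17× PBS/6 mM DTT, 1 h RT. Eluted kinase quantified by qPCR; Kd derived by non-linear least-squares Hill fitting.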

[2] = biological target: T2, FGFR2 (Homo sapiens, UniProt P21802); experiment: Kinase binding assay (Kd), FGFR2; conditions: 11-point 3-fold dilution, qPCR readout
T2 construct: made in house; host or cells: E. coli host derived from BL21, infected with T7 phage
In short: as §1

[3] = system: SNU-16 cells (Gastric Carcinoma, FGFR2 amplification); experiment: Cancer cell line cell viability assay, SNU-16; format: cell-based; conditions: Homo sapiens, 72 hours, Cell Titer-Glo 2.0, read-out: Cancer Cell Viability Assays SNU-16 (IC50 nM)
Text: [table] To detect the change of intracellular ATP by Cell Titer-Glo® and to evaluate the inhibitory effect of the compounds on cancer cell lines by determining the in vitro IC50 value of the compounds. Cell Titer-Glo® 2.0 Luminescent cell viability assay reagent was purchased from Promega (Madison, Wis.). RT112/84, SNU-16, and KG-1 cell lines were purchased from American Type Culture Collection (Manassas, Va.). UM-UC-14 cell line was purchased from Sigma (St. Louis, Mo.). RT112/84, UM-UC-14, SNU-16, and KG-1 cells were cultured in RPMI1640 media supplemented with 10% fetal bovine serum. Cultures were maintained at 37° C. in a humidified atmosphere of 5% CO2 and 95% air. Cell Viability Assay Procedure: Cells were plated in 96-well clear bottom/white plates (Corning #3903) at 10,000 cells/well in 100 μl of media, incubated overnight. The next day, test compound DMSO stock solutions were made at 10 mM and 2 μM final concentration. Compounds were then added to cells in a 9-dose, […] dilution series starting at 30 μM with an HP 300e Digital Dispenser (each dose was applied in triplicate). DMSO was backfilled to each well up to 301 nL total volume of test compound+DMSO, and a total of 301 nL DMSO was added to a control/no test compound well in triplicate. The cells in cell culture plates were incubated with the compounds at 37° C. and 5% CO2 for 72 hours. Then 50 μl of Cell Titer Glo 2.0 reagent was added to each well of the cell culture plates. The contents were covered from light and mixed on an orbital shaker at room temperature for 10 min. Luminescence was recorded by a Synergy H1 Microplate Reader (Biotek, Winooski, Vt.). Cells were assessed as a percentage of DMSO only treated control cells. Curves were plotted and IC50 values were calculated using the GraphPad Prism 8 program based on a sigmoidal dose-response equation (4 parameter).

T2 sequence (P21802 22-821): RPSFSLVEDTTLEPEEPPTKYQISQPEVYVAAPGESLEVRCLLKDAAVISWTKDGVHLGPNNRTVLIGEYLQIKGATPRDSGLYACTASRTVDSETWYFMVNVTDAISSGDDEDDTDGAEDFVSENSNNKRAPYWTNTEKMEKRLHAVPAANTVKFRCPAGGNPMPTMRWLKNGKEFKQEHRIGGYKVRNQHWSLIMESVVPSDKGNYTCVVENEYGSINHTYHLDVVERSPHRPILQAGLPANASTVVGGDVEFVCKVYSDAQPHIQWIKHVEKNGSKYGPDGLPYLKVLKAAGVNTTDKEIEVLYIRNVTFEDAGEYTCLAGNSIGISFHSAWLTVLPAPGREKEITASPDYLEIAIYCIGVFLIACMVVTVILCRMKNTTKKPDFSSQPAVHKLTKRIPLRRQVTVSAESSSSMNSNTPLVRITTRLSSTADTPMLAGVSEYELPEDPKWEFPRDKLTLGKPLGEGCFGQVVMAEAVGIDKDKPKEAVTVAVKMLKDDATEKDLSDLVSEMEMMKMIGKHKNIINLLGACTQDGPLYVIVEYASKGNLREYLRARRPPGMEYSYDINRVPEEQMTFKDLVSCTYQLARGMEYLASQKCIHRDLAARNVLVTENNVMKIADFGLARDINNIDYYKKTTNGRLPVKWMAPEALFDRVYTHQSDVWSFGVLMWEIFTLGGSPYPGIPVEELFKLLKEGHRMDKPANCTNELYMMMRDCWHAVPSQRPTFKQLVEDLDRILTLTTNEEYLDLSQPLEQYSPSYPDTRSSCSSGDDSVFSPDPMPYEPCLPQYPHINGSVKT
T1 sequence (P11362 22-822): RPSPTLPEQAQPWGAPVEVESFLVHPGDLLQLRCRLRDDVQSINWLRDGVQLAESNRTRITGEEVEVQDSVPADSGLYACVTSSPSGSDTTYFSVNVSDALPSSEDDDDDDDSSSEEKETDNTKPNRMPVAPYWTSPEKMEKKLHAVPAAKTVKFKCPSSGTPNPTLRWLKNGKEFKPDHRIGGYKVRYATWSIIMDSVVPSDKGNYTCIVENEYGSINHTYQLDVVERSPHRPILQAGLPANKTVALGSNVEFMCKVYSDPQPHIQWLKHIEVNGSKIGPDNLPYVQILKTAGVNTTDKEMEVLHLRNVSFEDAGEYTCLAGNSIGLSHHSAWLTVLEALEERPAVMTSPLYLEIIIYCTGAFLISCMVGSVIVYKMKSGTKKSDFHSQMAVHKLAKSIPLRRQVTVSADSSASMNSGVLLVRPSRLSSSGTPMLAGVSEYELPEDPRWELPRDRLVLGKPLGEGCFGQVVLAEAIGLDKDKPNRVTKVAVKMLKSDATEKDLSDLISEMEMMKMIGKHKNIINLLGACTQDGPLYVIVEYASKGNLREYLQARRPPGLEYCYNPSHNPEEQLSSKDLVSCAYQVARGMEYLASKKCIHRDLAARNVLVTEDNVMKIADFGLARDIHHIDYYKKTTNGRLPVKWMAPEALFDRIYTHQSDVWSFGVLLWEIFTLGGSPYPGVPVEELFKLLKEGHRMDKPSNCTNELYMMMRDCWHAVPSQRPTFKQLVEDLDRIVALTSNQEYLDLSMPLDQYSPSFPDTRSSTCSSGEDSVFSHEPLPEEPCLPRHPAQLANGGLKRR

Row | Compound | Kd [1] | Kd [2] | IC50 [3]
1 | C=CC(=O)Nc1ccc2c(c1)c(C)cn2-c1nc(Nc2ccc(N=S(C)(C)=O)c(F)c2)ncc1Cl [Example 60, N-[1-[5-Chloro-2-[4-[[dimethyl(oxo)-λ^6-sulfanylidene]amino]-3-fluoro-anilino]pyrimidin-4-yl]-3-methyl-indol-5-yl]prop-2-enamide] | 14 nM | 3.2 nM | 
2 | C=CC(=O)Nc1ccc2c(c1)c(C)cn2-c1nc(Nc2ccc(N=S(C)(C)=O)cc2)ncc1Cl [Example 61, N-[1-[5-Chloro-2-[4-[[dimethyl(oxo)-λ^6-sulfanylidene]amino]anilino]pyrimidin-4-yl]-3-methyl-indol-5-yl]prop-2-enamide] | 21 nM | 6 nM | 
3 | C=CC(=O)Nc1ccc2c(c1)c(C)cn2-c1nc(Nc2ccc(N=S(C)(C)=O)c(F)c2)ncc1C#N [Example 62, N-[1-[5-Cyano-2-[4-[[dimethyl(oxo)-λ^6-sulfanylidene]amino]-3-fluoro-anilino]pyrimidin-4-yl]-3-methyl-indol-5-yl]prop-2-enamide] | 79 nM | 16 nM | 
4 | C=CC(=O)Nc1ccc2c(c1)c(C)cn2-c1nc(Nc2ccc(N=S(C)(C)=O)c(F)c2)ncc1C [Example 63, N-[1-[2-[4-[[dimethyl(oxo)-λ^6-sulfanylidene]amino]-3-fluoro-anilino]-5-methyl-pyrimidin-4-yl]-3-methyl-indol-5-yl]prop-2-enamide] | 10 nM | 3 nM | 
5 | C=CC(=O)Nc1ccc2c(c1)c(C)cn2-c1nc(Nc2ccc(N=S(C)(C)=O)c(OC)c2)ncc1Cl [Example 64, N-[1-[5-Chloro-2-[4-[[dimethyl(oxo)-λ^6-sulfanylidene]amino]-3-methoxy-anilino]pyrimidin-4-yl]-3-methyl-indol-5-yl]prop-2-enamide] | 5 nM | 4 nM | 
6 | C=CC(=O)Nc1ccc2c(ccn2-c2nc(Nc3ccc(N=S(C)(C)=O)cc3)ncc2Cl)c1 [Example 66, N-[1-[5-chloro-2-[4-[[dimethyl(oxo)-λ^6-sulfanylidene]amino]anilino]-pyrimidin-4-yl]indol-5-yl]prop-2-enamide] | 61 nM | 37 nM | 65 nM
7 | C=CC(=O)Nc1ccc2c(ccn2-c2nc(Nc3ccc(S(C)(=N)=O)cc3)ncc2Cl)c1 (stereo not drawn) [Example 70, N-[1-[5-Chloro-2-[4-(methylsulfonimidoyl)anilino]-pyrimidin-4-yl]indol-5-yl]prop-2-enamide] | 230 nM | 25 nM | 12 nM
8 | C=CC(=O)Nc1ccc2c(-c3nc(Nc4ccc(N=S(C)(C)=O)cc4)ncc3Cl)cn(C)c2c1 [Example 92, N-[3-[5-chloro-2-[4-[[dimethyl(oxo)-λ^6-sulfanylidene]amino]anilino]pyrimidin-4-yl]-1-methyl-indol-6-yl]prop-2-enamide] | 63 nM | 13 nM | 
